These results are taken from patent publication US11325892B2, “Compounds and methods for treating cancer” (Mayo Foundation for Medical Education and Research, priority 2014, dated 2022).

pIC50: −log10 of the molar value.

Data set [1] deals with A498, ACHN, and Caki1 cell lines. Briefly: Oleic acid (OA) rescue assay of cell proliferation in ccRCC cells. The note with it: EC50 dose of compound with OA (5 μg/μL); all three cell lines. It counts as cell-based. The protocol:
(§1) Cells were seeded at 5,000 cells/well in clear-bottom 96-well plates in triplicate in Maintenance Media. Drug treatment was applied at a concentration of 1:1000 in reduced serum (3%) Maintenance Media. After 72 hours, cells were washed with PBS, and stored at −80° C. prior to analysis using CyQuant® Proliferation Analysis Kit (Invitrogen) as per manufacturers' protocol for relative fluorescence units. Alternatively, cells were plated 2×10^5/well in 12-well plates (Midwest Scientific) in triplicate prior to drug treatment. After 120 hour treatment, cell number was established using a Coulter Particle Counter (Beckman). Or, cells were plated (0.5 or 1×10^5/well) in 24-well plates (Midwest Scientific), 3×. After 72 hour treatment, cell number established using Coulter Particle Counter (Beckman). Oleic acid-albumin (Sigma Aldrich) was added to media at 5 μM, and was applied adjuvant to drug treatment. Drug stocks were prepared in DMSO (Sigma) at 1000×. EC50 dosing per cell line was calculated using CalcuSyn® analytical software.
A498, ACHN, and Caki1 cell lines were treated with the EC50 dose of each MF-438, ChemBL375265, SSI-1, SSI-4, SSI-3, and SSI-2 with or without concomitant application of OA (5 μg/μL). […] Representative images of A498 cell morphology and density treated with each compound +/−OA are shown in (FIG. 2B).

For data set [2], the system named is THJ16T ATC cell xenograft. As to the kind of experiment: THJ16T xenograft model. It counts as in vivo, female athymic nu/nu mice. On the procedure:
Formalin-fixed, paraffin-embedded subject tissues were mounted on slides, blocked with Diluent (DakoCytomation) for 30 min, and then probed for SCD (Sigma-Aldrich, #HPA012107). IHC scoring was performed as previously described (von Roemeling C A, Marlow L A, Wei J J, et al. Stearoyl-CoA desaturase 1 is a novel molecular therapeutic target for clear cell renal cell carcinoma. Clin Cancer Res. May 1 2013; 19(9):2368-2380). Cases where insufficient tumor tissue presented were excluded. 20× images were obtained using Scanscope XT and Imagescope software.
1×10^6 THJ16T ATC cells were subcutaneously injected in female athymic nu/nu mice (Harlan Laboratories). Treatment was initiated once tumor volumes reached 50-100 mm^3. MF-438 was suspended in 0.5% carboxymethyl-cellulose containing strawberry drink flavoring(0.1 g/mL) in sterilized H2O at 25 mg/kg in a 100 μl dose, and administered via oral gavage once daily. Carfilzomib was solubilized in DMSO (4% of FC), suspended in 100% corn oil at 4 mg/kg per 50 uL dose and administered via intraperitoneal injection twice weekly on consecutive days. Tumor volume(0.5236[L*W*H]) and body weight were measured 2×/week. N=10 mice/group.
MF-438 was tested in combination with carfilzomib in vivo in a THJ16T xenograft model. […] J Clin Endocrinol Metab. 2010; 95(12):5338-47). […] Saline was administered as necessary. These adverse events resolved 24-48 hours after the second administration of carfilzomib. […] However, no other significant adverse events were observed. […] IHC analysis of tumors resected from each treatment group was performed.

A further data set relates to FTC cells. Briefly: Proliferative dose response of thyroid cells. Particulars: 72H treatment. It counts as cell-based. The protocol: as §1
(§2) The efficacy of pharmacologic inhibition of this enzyme on tumor cell proliferation after a 72H treatment was determined, using A939572-a commercially available small molecule SCD1 inhibitor (Xin Z, Zhao H, Serby M D, Liu B, Liu M, Szczepankiewicz B G, Nelson L T, Smith H T, Suhar T S, Janis R S, Cao N, Camp H S, Collins C A, Sham H L, Surowy T K, Liu G. Discovery of piperidine-aryl urea-based stearoyl-CoA desaturase 1 inhibitors. Bioorg Med Chem Lett. 2008; 18(15):4298-302). […] Despite conspicuous SCD1 expression in 4 of the 5 FTC cells tested, no response to A939572 was observed (FIG. 10D).

Another data set concerns NT or FA cells. Briefly: Proliferative dose response of thyroid cells. The data set is classed as cell-based. The note with it: 72H treatment. The protocol: as §1, §2
In another data set the test system is PTC cells. As to the kind of experiment: Proliferative dose response of thyroid cells. The data set is classed as cell-based. The note with it: 72H treatment; 2/5 PTC cells at high doses. The protocol: as §1, §2
The next data set concerns the target T1, SCD1 (Homo sapiens, UniProt O00767).
T1 sequence (O00767 1-359): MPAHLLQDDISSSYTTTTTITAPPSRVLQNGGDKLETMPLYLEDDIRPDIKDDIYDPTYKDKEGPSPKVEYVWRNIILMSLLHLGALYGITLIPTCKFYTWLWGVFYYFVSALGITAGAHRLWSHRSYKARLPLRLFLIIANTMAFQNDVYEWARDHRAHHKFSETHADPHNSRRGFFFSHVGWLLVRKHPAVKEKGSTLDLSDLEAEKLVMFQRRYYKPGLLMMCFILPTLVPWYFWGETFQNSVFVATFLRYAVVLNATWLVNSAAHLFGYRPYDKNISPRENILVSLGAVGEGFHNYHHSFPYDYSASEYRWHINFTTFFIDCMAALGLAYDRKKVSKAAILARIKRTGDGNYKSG
The note with it: known inhibitors; cited from earlier work.

As to `Cc1nnc(-c2ccc(N3CCC(Oc4ccccc4C(F)(F)F)CC3)nn2)s1` [MF-438, 2-methyl-5-(6-(4-(2-(trifluoromethyl)phenoxy)piperidin-1-yl)pyridazin-3-yl)-1,3,4-thiadiazole], in data set [1], the “rescue of cell proliferation with OA” value was “Near total rescue of cell proliferation”. For the same compound, the “tumor response / mean tumor volume course” value in data set [2] (THJ16T xenograft) is listed as “no tumor response”. Also, the adverse events result in data set [2] (mice bearing THJ16T xenograft) was “Discharge from the eye and squinting”. For the same compound, in data set [2] (mouse, in vivo), the “survivin expression (IHC)” value is reported as “induced survivin expression”. For the same compound, the “CD31 (IHC), tumor vascularization” value in data set [2] (versus placebo control) was “trend toward decreased CD31”. For the same compound, the “cleaved caspase-3 (IHC)” value in data set [2] (versus placebo control, only the combination group achieved statistical significance) is reported as “increased cleaved caspase-3”. Further, the “HERPUD1 (IHC), marker for ER stress” value in data set [2] (versus placebo control, statistically significant combinatorial values) is given as “Increased HERPUD1”.

As a reminder, the pIC50 is −log10 of the IC50, conventionally taken in molar units. Take `CNC(=O)c1cccc(NC(=O)N2CCC(Oc3ccccc3Cl)CC2)c1` [A939572]: the proliferative response entry in the data set on FTC cells is on record as “no response”; in the data set on NT or FA cells, “No response”; in the data set with PTC cells, “minimal response”. Besides, on SCD1, the pIC50 was 7.43.
